The values below come from patent publication US20240327347A1, “COMPOUNDS AND METHODS FOR TREATING 5-HT2 […]” (Board of Supervisors of Louisiana State University and …, priority 2021, published 2024).

The test in a line: structure-activity relationship for anti-inflammatory activity (FIG. 3). Conditions: SAR results. The text has this:
The loss or modification of the 5-methoxy results in reduced efficacy in DOx/2Cx compounds.
We determined that DOx/2Cx structures with a modified or missing 5-methoxy have reduced anti-inflammatory activity (FIG. 3). […] Without wishing to be bound by theory, the 5-methoxy of the DOx/2Cx compounds can engage residues in the binding pocket similar to those that engage the 4-OH of tryptamines, although the residues engaged by tryptamines have not been elucidated because the crystal structure of a tryptamine in the 5-HT2A receptor has not yet been published. […] Thus, without wishing to be bound by theory, a water molecule also must be present there to form a hydrogen bond bridge from the oxygen to N343.
The SAR results as shown in FIG. 3 are consistent with engagement of TM6 N343 by the 5-methoxy or 4-OH of DOx/2Cx or tryptamines, respectively, through a hydrogen bond bridge with a water molecule to produce the conformational change to recruit anti-inflammatory effectors to the activated receptor.

Molecules are shown by their SMILES.

Take `CN(C)CCc1c[nH]c2ccccc12` [N,N-DMT, N,N-dimethyltryptamine]: the anti-inflammatory efficacy/activity entry was “complete loss of efficacy”.
